Assay results as given in patent US9980936B2, “BH4 antagonists and methods related thereto” (Emory University, priority 2014, dated 2018).

Key:
[1] = test system: normal small airway epithelial cell line (SAEC); experiment: cell growth (SRB) and apoptosis (Annexin V/PI), normal cells; type: cell-based
[2] = test system: NSCLC cell lines A549 and H1299; SCLC cell lines DMS114 and H128; experiment: cell growth (SRB) and apoptosis (Annexin V/PI), lines with lower or undetectable Bcl2; type: cell-based; settings: relatively lower or undetectable levels of endogenous Bcl2
Experimental: The effect of BDA-2 on cell growth and apoptosis was measured by SRB assay and Annexin V/PI binding, respectively, in both small cell lung cancer (SCLC) and non-small cell lung cancer (NSCLC) cell lines that express various levels of endogenous Bcl2.

## CCN(CC)CC(O)CNc1ccc(NCC2CO2)c2c1C(=O)c1ccccc1C2=O (centres unmarked) [BDA-366, 1-((3-(diethylamino)-2-hydroxypropyl)amino)-4-((oxiran-2-ylmethyl)amino)anthracene-9,10-dione]
[1]
  sensitivity of normal cells: less sensitive
[2]
  sensitivity of cells: less sensitive
